Laboratory results taken from ChEMBL document CHEMBL5154644, “Design, Synthesis, and Structure-Activity Relationship Optimization of Pyrazolopyrimidine Amide Inhibitors of Phosphoinositide 3-Kinase γ (PI3Kγ)” (J Med Chem, 2022).

Key:
[1] = molecular target: Phosphatidylinositol 4,5-bisphosphate 3-kinase catalytic subunit gamma isoform (Homo sapiens, UniProt P48736); assay: Inhibition of PI3Kgamma (unknown origin) at 10 uM using PIP2 as substrate preincubated for 60 mins followed by substrate addition and measured after 45 mins in presence of ATP by TR-FRET analysis
Cytochrome P450 2C8 = molecular target: T1, Cytochrome P450 2C8 (Homo sapiens, UniProt P10632); assay: Time dependent inhibition of CYP2C8 in human liver microsomes at 40 uM measured after 5 to 20 mins in presence of NADPH by LC/MS/MS analysis; assay type: ADME, Microsome
T1 sequence (P10632 whole entry): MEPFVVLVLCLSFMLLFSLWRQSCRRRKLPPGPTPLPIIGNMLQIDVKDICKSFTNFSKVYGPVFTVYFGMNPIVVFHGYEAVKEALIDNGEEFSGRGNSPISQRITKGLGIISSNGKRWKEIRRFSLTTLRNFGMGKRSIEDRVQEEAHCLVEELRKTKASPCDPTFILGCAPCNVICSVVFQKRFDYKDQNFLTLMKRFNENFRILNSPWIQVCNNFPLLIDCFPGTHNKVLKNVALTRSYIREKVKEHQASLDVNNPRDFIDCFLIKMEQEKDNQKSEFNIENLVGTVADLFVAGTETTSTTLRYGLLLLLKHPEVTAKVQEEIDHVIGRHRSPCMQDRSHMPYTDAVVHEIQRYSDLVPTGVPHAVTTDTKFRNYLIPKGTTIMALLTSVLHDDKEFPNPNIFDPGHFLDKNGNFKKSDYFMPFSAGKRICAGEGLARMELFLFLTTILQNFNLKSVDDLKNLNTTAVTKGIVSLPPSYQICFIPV

[2] = Apparent permeability of the compound across apical to basolateral side in human Caco-2 cells; assay type: toxicity, cell-based; settings: in vivo, 100 mg/kg, 168 h, time 7 day

Sequence of Phosphatidylinositol 4,5-bisphosphate 3-kinase catalytic subunit gamma isoform (P48736 whole entry, canonical isoform): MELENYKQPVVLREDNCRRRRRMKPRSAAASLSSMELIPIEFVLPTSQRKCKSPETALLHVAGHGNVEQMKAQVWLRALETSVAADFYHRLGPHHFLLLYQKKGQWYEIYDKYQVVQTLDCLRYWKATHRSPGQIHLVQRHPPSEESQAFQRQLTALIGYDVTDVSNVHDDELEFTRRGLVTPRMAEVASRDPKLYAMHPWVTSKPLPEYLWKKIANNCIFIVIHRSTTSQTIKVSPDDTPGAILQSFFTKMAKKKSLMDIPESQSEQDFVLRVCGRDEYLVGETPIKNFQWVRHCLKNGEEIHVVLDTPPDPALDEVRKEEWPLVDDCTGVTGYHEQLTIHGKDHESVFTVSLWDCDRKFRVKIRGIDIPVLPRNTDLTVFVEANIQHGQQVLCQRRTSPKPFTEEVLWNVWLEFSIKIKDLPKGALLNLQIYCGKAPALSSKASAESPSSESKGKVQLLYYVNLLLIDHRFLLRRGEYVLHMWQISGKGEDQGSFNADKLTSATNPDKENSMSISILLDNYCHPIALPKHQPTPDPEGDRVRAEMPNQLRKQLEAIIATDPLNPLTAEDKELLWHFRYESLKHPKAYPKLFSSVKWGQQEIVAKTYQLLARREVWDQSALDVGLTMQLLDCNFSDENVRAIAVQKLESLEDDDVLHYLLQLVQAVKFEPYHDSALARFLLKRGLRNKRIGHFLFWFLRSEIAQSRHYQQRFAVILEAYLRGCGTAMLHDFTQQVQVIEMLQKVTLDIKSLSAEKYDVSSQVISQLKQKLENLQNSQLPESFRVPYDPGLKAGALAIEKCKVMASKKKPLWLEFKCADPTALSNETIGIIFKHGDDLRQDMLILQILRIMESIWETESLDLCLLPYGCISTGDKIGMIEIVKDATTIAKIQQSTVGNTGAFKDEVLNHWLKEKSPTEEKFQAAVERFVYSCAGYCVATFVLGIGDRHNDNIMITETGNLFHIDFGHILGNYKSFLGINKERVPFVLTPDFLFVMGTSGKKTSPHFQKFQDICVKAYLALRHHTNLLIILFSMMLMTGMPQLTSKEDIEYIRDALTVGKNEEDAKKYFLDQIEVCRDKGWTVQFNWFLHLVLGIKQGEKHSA

Ki [1]: 0.7 nM | IC50 (Cytochrome P450 2C8): > 20000 nM
SMILES: C[C@@H](C1CC1)N1Cc2cc(-c3ccn4nc(N)c(C(=O)N[C@H]5CC[C@@](C)(O)CC5)c4n3)cc(OC(F)F)c2C1=O
Activity [2]: Non-Toxic
